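Grown in 96-well plates, cells were treated for 48 hours with each compound at five concentrations. Insufficient inhibition: endpoint recorded as highest concentration tested. GI50: concentration for 50% inhibition of growth.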 Activity calls are given as the source filed them. Rule as the data show it: active = GI50 up to about 1.1 µM and inactive = higher.
Tests used:
Test in all cases: growth of human tumour cells (NCI), 48 h
[1] = system: 786-0
[2] = system: A498
[3] = system: A549
[4] = system: ACHN
[5] = system: CAKI-1
[6] = system: CCRF-CEM
[7] = system: COLO 205
[8] = system: DLD-1
[9] = system: DMS-114
[10] = system: DMS-273
[11] = system: EKVX
[12] = system: HCC 2998
[13] = system: HCT-116
[14] = system: HCT-15
[15] = system: HL-60
[16] = system: HOP-18
[17] = system: HOP-62
[18] = system: HOP-92
[19] = system: HT-29
[20] = system: IGROV-1
[21] = system: K562
[22] = system: KM-20L2
[23] = system: KM12
[24] = system: LXFL 529
[25] = system: M14
[26] = system: M19-MEL
[27] = system: MOLT-4
[28] = system: Malme-3M
[29] = system: NCI-H226
[30] = system: NCI-H23
[31] = system: NCI-H460
[32] = system: NCI-H522
[33] = system: OVCAR-3
[34] = system: OVCAR-4
[35] = system: OVCAR-5
[36] = system: OVCAR-8
[37] = system: RPMI-8226
[38] = system: RXF 631
[39] = system: SF-268
[40] = system: SF-295
[41] = system: SF-539
[42] = system: SK-MEL-28
[43] = system: SK-MEL-2
[44] = system: SK-MEL-5
[45] = system: SK-OV-3
[46] = system: SN12C
[47] = system: SNB-19
[48] = system: SNB-75
[49] = system: SNB-78
[50] = system: SW-620
[51] = system: TK-10
[52] = system: U-251
[53] = system: UACC-257
[54] = system: UACC-62
[55] = system: UO-31
[56] = system: XF498
[57] = system: LOX IMVI
[58] = system: RXF 393
[59] = system: SR

## O=c1c2ccccc2nc(-c2ccccc2)n1NC1OC(CO)C(O)C(O)C1O (stereo not drawn)
[1]
  GI50: > 100 µM (inactive)
[2]
  GI50: > 100 µM (inactive)
[3]
  GI50: > 100 µM (inactive)
[4]
  GI50: > 100 µM (inactive)
[5]
  GI50: > 100 µM (inactive)
[6]
  GI50: > 100 µM (inactive)
[7]
  GI50: > 100 µM (inactive)
[8]
  GI50: > 100 µM (inactive)
[9]
  GI50: > 100 µM (inactive)
[10]
  GI50: > 100 µM (inactive)
[11]
  GI50: > 100 µM (inactive)
[12]
  GI50: > 100 µM (inactive)
[13]
  GI50: > 100 µM (inactive)
[14]
  GI50: > 100 µM
[15]
  GI50: > 100 µM (inactive)
[16]
  GI50: 1.46 µM (inactive)
[17]
  GI50: > 100 µM (inactive)
[18]
  GI50: > 100 µM (inactive)
[19]
  GI50: > 100 µM (inactive)
[20]
  GI50: > 100 µM (inactive)
[21]
  GI50: > 100 µM (inactive)
[22]
  GI50: > 100 µM (inactive)
[23]
  GI50: > 100 µM (inactive)
[24]
  GI50: > 100 µM (inactive)
[25]
  GI50: > 100 µM (inactive)
[26]
  GI50: > 100 µM (inactive)
[27]
  GI50: > 100 µM (inactive)
[28]
  GI50: > 100 µM (inactive)
[29]
  GI50: > 100 µM (inactive)
[30]
  GI50: > 100 µM (inactive)
[31]
  GI50: > 100 µM (inactive)
[32]
  GI50: > 100 µM (inactive)
[33]
  GI50: > 100 µM (inactive)
[34]
  GI50: > 100 µM (inactive)
[35]
  GI50: > 100 µM (inactive)
[36]
  GI50: > 100 µM (inactive)
[37]
  GI50: > 100 µM (inactive)
[38]
  GI50: > 100 µM (inactive)
[39]
  GI50: > 100 µM (inactive)
[40]
  GI50: > 100 µM (inactive)
[41]
  GI50: > 100 µM (inactive)
[42]
  GI50: > 100 µM (inactive)
[43]
  GI50: > 100 µM (inactive)
[44]
  GI50: > 100 µM (inactive)
[45]
  GI50: > 100 µM (inactive)
[46]
  GI50: > 100 µM (inactive)
[47]
  GI50: > 100 µM (inactive)
[48]
  GI50: 85.3 µM (inactive)
[49]
  GI50: > 100 µM (inactive)
[50]
  GI50: > 100 µM (inactive)
[51]
  GI50: > 100 µM (inactive)
[52]
  GI50: > 100 µM (inactive)
[53]
  GI50: > 100 µM (inactive)
[54]
  GI50: > 100 µM (inactive)
[55]
  GI50: > 100 µM (inactive)
[56]
  GI50: > 100 µM (inactive)

## O=C(/C=C/c1ccccc1F)c1ccc(Cl)c(Cl)c1
[1]
  GI50: 17.3 µM (inactive)
[2]
  GI50: > 39.1 µM (inactive)
[3]
  GI50: 64 µM (inactive)
[4]
  GI50: > 88.1 µM (inactive)
[5]
  GI50: 38.8 µM (inactive)
[6]
  GI50: 23.3 µM (inactive)
[7]
  GI50: 75.3 µM (inactive)
[8]
  GI50: 23.9 µM (inactive)
[9]
  GI50: 24 µM (inactive)
[10]
  GI50: 35.1 µM (inactive)
[11]
  GI50: > 100 µM (inactive)
[12]
  GI50: 24.7 µM (inactive)
[13]
  GI50: 16.3 µM (inactive)
[14]
  GI50: 37.1 µM
[15]
  GI50: 18.9 µM (inactive)
[16]
  GI50: 16.4 µM (inactive)
[17]
  GI50: > 100 µM (inactive)
[18]
  GI50: > 100 µM (inactive)
[19]
  GI50: 27.3 µM (inactive)
[20]
  GI50: 34.3 µM (inactive)
[21]
  GI50: 20.5 µM (inactive)
[22]
  GI50: 36.3 µM (inactive)
[23]
  GI50: 19.9 µM (inactive)
[57]
  GI50: 15.4 µM (inactive)
[24]
  GI50: 18.3 µM (inactive)
[25]
  GI50: 32.4 µM (inactive)
[26]
  GI50: 24 µM (inactive)
[27]
  GI50: 27.4 µM (inactive)
[28]
  GI50: > 92.9 µM (inactive)
[29]
  GI50: > 100 µM (inactive)
[30]
  GI50: 14.2 µM (inactive)
[31]
  GI50: > 71.1 µM (inactive)
[32]
  GI50: 23.2 µM (inactive)
[33]
  GI50: > 44.8 µM (inactive)
[34]
  GI50: 44.4 µM (inactive)
[35]
  GI50: > 87.1 µM (inactive)
[36]
  GI50: 33 µM (inactive)
[37]
  GI50: 27.7 µM (inactive)
[58]
  GI50: 21.9 µM (inactive)
[38]
  GI50: > 53.7 µM (inactive)
[39]
  GI50: 38.3 µM (inactive)
[40]
  GI50: 39.3 µM (inactive)
[41]
  GI50: 30 µM (inactive)
[42]
  GI50: > 53.1 µM (inactive)
[43]
  GI50: > 75 µM (inactive)
[44]
  GI50: 33.5 µM (inactive)
[45]
  GI50: > 100 µM (inactive)
[46]
  GI50: 35.6 µM (inactive)
[47]
  GI50: > 58.6 µM (inactive)
[48]
  GI50: 39.3 µM (inactive)
[49]
  GI50: > 69.3 µM (inactive)
[59]
  GI50: 33.3 µM (inactive)
[50]
  GI50: 29.3 µM (inactive)
[51]
  GI50: > 100 µM (inactive)
[52]
  GI50: > 10 µM (inactive)
[53]
  GI50: 49.4 µM (inactive)
[54]
  GI50: 52.8 µM (inactive)
[55]
  GI50: 40.9 µM (inactive)
[56]
  GI50: 28.5 µM (inactive)

## C/C(=N\NC(=N)N)C(CN(CC(C)C)CC(C)C)C(=O)Nc1ccc(C)cc1C (stereo not drawn)
[1]
  GI50: > 100 µM (inactive)
[2]
  GI50: > 100 µM (inactive)
[3]
  GI50: > 100 µM (inactive)
[4]
  GI50: > 100 µM (inactive)
[5]
  GI50: > 100 µM (inactive)
[6]
  GI50: > 100 µM (inactive)
[7]
  GI50: > 100 µM (inactive)
[8]
  GI50: > 100 µM (inactive)
[9]
  GI50: > 100 µM (inactive)
[10]
  GI50: > 100 µM (inactive)
[11]
  GI50: 81.5 µM (inactive)
[12]
  GI50: > 100 µM (inactive)
[13]
  GI50: > 100 µM (inactive)
[14]
  GI50: > 100 µM
[15]
  GI50: 91.8 µM (inactive)
[16]
  GI50: > 100 µM (inactive)
[17]
  GI50: > 100 µM (inactive)
[18]
  GI50: 59.2 µM (inactive)
[19]
  GI50: > 100 µM (inactive)
[20]
  GI50: > 100 µM (inactive)
[21]
  GI50: > 100 µM (inactive)
[22]
  GI50: > 100 µM (inactive)
[23]
  GI50: > 100 µM (inactive)
[57]
  GI50: > 100 µM (inactive)
[24]
  GI50: > 100 µM (inactive)
[25]
  GI50: > 100 µM (inactive)
[26]
  GI50: > 100 µM (inactive)
[27]
  GI50: > 100 µM (inactive)
[28]
  GI50: > 100 µM (inactive)
[29]
  GI50: > 100 µM (inactive)
[30]
  GI50: > 100 µM (inactive)
[31]
  GI50: > 100 µM (inactive)
[32]
  GI50: > 100 µM (inactive)
[33]
  GI50: > 100 µM (inactive)
[34]
  GI50: > 100 µM (inactive)
[35]
  GI50: > 100 µM (inactive)
[36]
  GI50: > 100 µM (inactive)
[58]
  GI50: > 100 µM (inactive)
[38]
  GI50: > 100 µM (inactive)
[39]
  GI50: > 100 µM (inactive)
[40]
  GI50: > 100 µM (inactive)
[41]
  GI50: > 100 µM (inactive)
[42]
  GI50: > 100 µM (inactive)
[43]
  GI50: > 100 µM (inactive)
[44]
  GI50: > 100 µM (inactive)
[45]
  GI50: > 100 µM (inactive)
[46]
  GI50: > 100 µM (inactive)
[47]
  GI50: > 100 µM (inactive)
[48]
  GI50: > 100 µM (inactive)
[49]
  GI50: > 100 µM (inactive)
[59]
  GI50: > 100 µM (inactive)
[50]
  GI50: > 100 µM (inactive)
[51]
  GI50: > 100 µM (inactive)
[52]
  GI50: > 100 µM (inactive)
[53]
  GI50: > 100 µM (inactive)
[54]
  GI50: > 100 µM (inactive)
[55]
  GI50: 54.7 µM (inactive)
[56]
  GI50: 59.6 µM (inactive)

— ChEMBL document CHEMBL1201862, “PubChem BioAssay data set” (2004)
